Measurements from US11008291B2, “Methods of forming carbene-functionalized composite materials” (Queen's University at Kingston, priority 2015, dated 2021).

Tests used:
HSA = HSA (Homo sapiens, UniProt P02768); assay: Opioid/protein interactions on HSA-immobilized NHC-CM5 chip (SPR); assay type: binding; conditions: for Detection of opioid on HSA surface of NHC-CM5 chip: 50, 100, 200, 400 μM, FIG. 21A-D
Description: NHC-CM5 chip was used for this study. HSA was immobilized using amine-coupling chemistry. […] Three 30s-injections of 50 mM NaOH was used to wash off non-covalently bound HSA and to further stabilize the baseline. […] Unmodified dextran surface was used as a reference surface.
Opioids were first serially diluted into running buffer to final concentrations of 50, 100, 200, 400 μM. To test data quality and further equilibrate the surfaces, 4 warm-up buffer cycles were performed at a flow rate of 30 μl/min. Opioids samples were injected over the reference and HSA surfaces at a flow rate of 30 μl/min. Replicate injections of each drug concentration were analyzed. Each cycle consisted of a 1-min waiting period for monitoring of the baseline stability. Then the drug/HSA complex was allowed to associate and dissociate for 60 s and 30 s, respectively. […] Data obtained in the reference flow cell was subtracted from that obtained in the HSA immobilized flow cell.

[1] = Chemical stability tests of NHC films on Au(111) (XPS); assay type: physicochemical; conditions: pH 2, THF 68° C., water RT 1 month, water 100° C., decalin, 1% H2O2; 24 h (FIGS. 7a-7g)
Description: All films were prepared using the hydrogen carbonate salt (carbene precursor) 3a and the solution deposition method previously described. Data for stability measurements are given in Chemical Stability Results.
NHC films derived from iPr2bimy(H)[HCO3] (3a) were submerged in freshly prepared unbuffered solutions of varying pH (pH 2 or pH 12) in Ace Glass pressure tubes at 25° C. for 24 h. Experiments were conducted under N2 gas to minimize the possibility of pH change due to adsorption of atmospheric CO2. After this time, functionalized surfaces were rinsed in deionized water (3×2 mL) and dried in an N2 gas stream. The pH values of the solutions were adjusted using concentrated NaOH and HCl solutions in deionized water. Unbuffered solutions were employed in order to avoid potential adsorption effects of buffer ions from solution.
NHC films derived from iPr2bimy(H)[HCO3] (3a) were placed in Ace Glass pressure tubes and 3 mL of freshly distilled tetrahydrofuran (THF) was added. The tube was purged with nitrogen gas, sealed and heated to 68° C. for 24 h. After this time, the sample was cooled to RT, rinsed in THF (2×5 mL), and dried under a nitrogen gas stream.
NHC films derived from iPr2bimy(H)[HCO3] (3a) were placed in Ace Glass pressure tubes and 2 mL of decalin were added. The tubes were purged with nitrogen gas, sealed and heated to either 100° C. or 190° C. for 24 h. […]

[2] = Temperature programmed desorption of NHC films from Au; assay type: physicochemical; conditions: TPD, FIG. 2
Description: Vapor deposition experiments were conducted in three separate stainless steel UHV chambers hosting an Ar ion sputtering gun and annealing facilities for sample cleaning. TPD data were collected in a UHV chamber (base pressure P=[…]) equipped with a quadrupole mass spectrometer (SPECTRA, Microvision Plus) in direct line-of-sight with the crystal, and a LEED/Auger spectrometer (SpectaLEED, Omicron). STM images were recorded in a third chamber (base pressure=[…]) equipped with a variable temperature scanning tunneling microscope (Omicron), and LEED optics. An electrochemically etched W tip was used for STM imaging typically employing bias voltages of ±0.6 V and tunneling currents of 300 pA. Image processing and filtering have been applied to the STM data using WSxM.

[3] = Bench stability and solubility of carbene precursors; assay type: physicochemical
[4] = target: bovine serum albumin (BSA) (Bos taurus, UniProt P02769); assay: Ferulic acid / BSA interaction on NHC-CM5 chip (SPR); assay type: binding; conditions: 100, 200, 400, 800 μM; FIG. 20
Sequence of bovine serum albumin (BSA) (P02769 25-607): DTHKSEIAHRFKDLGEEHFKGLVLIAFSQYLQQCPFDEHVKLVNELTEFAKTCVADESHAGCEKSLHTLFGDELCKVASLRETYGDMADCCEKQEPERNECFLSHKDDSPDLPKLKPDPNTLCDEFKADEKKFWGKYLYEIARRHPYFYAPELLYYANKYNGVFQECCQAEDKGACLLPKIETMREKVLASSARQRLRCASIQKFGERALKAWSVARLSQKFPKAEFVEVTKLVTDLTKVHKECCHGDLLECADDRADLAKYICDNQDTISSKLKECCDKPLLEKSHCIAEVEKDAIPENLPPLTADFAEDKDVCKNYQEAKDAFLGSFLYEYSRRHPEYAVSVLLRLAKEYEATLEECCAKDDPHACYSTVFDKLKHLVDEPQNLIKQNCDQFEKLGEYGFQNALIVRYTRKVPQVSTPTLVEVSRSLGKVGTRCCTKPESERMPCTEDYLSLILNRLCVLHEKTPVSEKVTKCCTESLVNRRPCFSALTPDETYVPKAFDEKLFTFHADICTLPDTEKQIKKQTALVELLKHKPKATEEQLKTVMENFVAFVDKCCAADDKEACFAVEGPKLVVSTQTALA
Description: NHC-CM5 (500 KDa) chip was used for this study. Bovine Serum Albumin (BSA) was immobilized (covalently bound to the sensor surface) using amine-coupling chemistry. PBS (10 mM phosphate, 138 mM NaCl, 2.7 mM KCl, pH 7.4) was used as running buffer. […] Final immobilization level of BSA of this study was around 3500 RU. Unmodified dextran surface was used as a reference surface (FC1).
Ferulic acid was first serially diluted into running buffer to final concentrations of 100, 200, 400, 800 μM. To test data quality and further equilibrate the surfaces, four warm-up buffer cycles were performed at a flow rate of 30 μl/min. Then, ferulic acid was injected over the reference and BSA surfaces at a flow rate of […] cycle consisted of a 2-min waiting period for monitoring of the baseline stability. Then the ferulic acid/BSA complex was allowed to associate and dissociate for 3-min and 3-min, respectively, and 20 mM NaOH (30 s) was used as the regeneration solution. The data was processed by subtracting from reference flow cell and blank injections—double referencing method.

Sequence of HSA (P02768 25-609): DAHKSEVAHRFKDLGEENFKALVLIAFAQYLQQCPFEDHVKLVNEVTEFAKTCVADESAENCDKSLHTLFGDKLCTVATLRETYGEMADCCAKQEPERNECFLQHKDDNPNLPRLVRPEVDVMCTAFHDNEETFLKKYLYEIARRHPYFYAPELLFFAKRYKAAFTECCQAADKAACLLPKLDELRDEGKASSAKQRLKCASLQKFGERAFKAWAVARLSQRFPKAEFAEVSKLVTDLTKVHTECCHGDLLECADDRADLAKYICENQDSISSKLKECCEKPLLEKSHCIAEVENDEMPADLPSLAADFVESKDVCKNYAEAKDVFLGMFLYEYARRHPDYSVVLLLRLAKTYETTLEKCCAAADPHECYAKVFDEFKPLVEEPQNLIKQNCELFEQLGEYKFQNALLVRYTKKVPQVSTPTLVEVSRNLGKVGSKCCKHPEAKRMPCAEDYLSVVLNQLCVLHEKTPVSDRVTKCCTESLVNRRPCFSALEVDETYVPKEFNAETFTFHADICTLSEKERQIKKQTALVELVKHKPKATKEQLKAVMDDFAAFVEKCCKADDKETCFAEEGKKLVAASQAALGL

CNC1(c2ccccc2Cl)CCCCC1=O (stereo not shown) [ketamine]
Detection of opioid on HSA surface of NHC-CM5 chip (HSA): successfully detected

CC(C)n1c[n+](C(C)C)c2ccccc21 [Compound 3a, 1,3-Diisopropylbenzimidazolium hydrogen carbonate]
XPS spectra of NHC SAM on gold derived from the precursor, before vs after treatment [1]: remained unchanged
Maximum desorption temperature of NHC film from Au [2]: 605 K
Solubility in THF and DCE ([3]; THF, DCE): mild solubility
Stability of the solid ([3]; ambient, in air): bench-stable
Solubility in ethanol and methanol ([3]; ethanol, methanol): soluble
Solubility in water ([3]; water): highly soluble

COc1cc(C=CC(=O)O)ccc1O [ferulic acid, 4-hydroxy-3-methoxycinnamic acid]
Sensing of ferulic acid by BSA pre-immobilized NHC-CM5 surface [4]: can sense

CC(=O)Oc1ccc2c3c1O[C@H]1[C@@H](OC(C)=O)C=C[C@H]4[C@@H](C2)N(C)CC[C@@]341 [heroin]
Detection of opioid on HSA surface of NHC-CM5 chip (HSA): successfully detected
Detectability at the lowest concentration (HSA; lowest of 50, 100, 200, 400 μM): not detectable
